Measurements from US11986506B2, “Dietary supplements for inhibiting PDE5 and increasing cGMP levels” (LAILA NUTRACEUTICALS, priority 2017, dated 2024).
Where a name gives a salt, the structure may show the parent alone.

Legend:
[1] = test system: male rats; experiment: Stimulation of sexual behaviour in male rats (pre-copulatory and copulatory counts over 30 minutes); type: in vivo, Sprague Dawley rats; conditions: 10 mg/kg oral
Experimental: The extracts of the current invention were then evaluated for their efficacy in vivo to stimulate sexual behavior in male rats. Briefly, healthy Sprague Dawley rats were acclimatized and randomized into various treatment groups (G1 to G6) as summarized in table 5. These animals were introduced to mating with female counterparts, which were previously treated with 100 μg/rat of estradiol benzoate and 1 mg/rat of progesterone at approximately 48 hours and 4 hours respectively prior to mating. […] The scored test parameters include frequency of licking, anogenital sniffing, climbing, genital grooming, mounting and intromission.
Separately, a set of 42 healthy female rats were selected and each of them were treated with single dose of 100 μg of estradiol benzoate and 1 mg of progesterone at approximately 48 hours and 4 hours respectively prior to introduction to mating.
One hour after test substance administration, each male rat was allowed to mate with a female rat in oestrus phase. Male sexual behaviour was measured for a period of 30 minutes with the aid of video recording. The scored test parameters include frequency of licking, anogenital sniffing, climbing, genital grooming, mounting, intromission and the results are summarized in tables 6 and 7, and depicted in FIG. 1.

[2] = test system: cyclic GMP; experiment: Plasma cyclic GMP estimation by ELISA after mating period; type: in vivo, Sprague Dawley rats; conditions: 10 mg/kg oral, plasma after 30 minutes mating period
Experimental: After 30 minutes of mating period, blood sample were collected from all animals, plasma separated and subjected to cyclic-GMP estimation using cyclic GMP ELISA Kit supplied by Cayman (Cat No 581022) as per the procedure provided by the manufacturer. The plasma cyclic GMP modulation data is summarized in Table 8 and depicted in FIG. 2.
After 30 minutes of mating period, blood sample was collected from each animal, plasma separated and the cyclic-GMP content was estimated using cyclic GMP ELISA Kit supplied by Cayman (Cat No 581022) as per the procedure provided by the manufacturer.

How did the “Climbing count Mean ± SE” value [1] turn out when `CCCc1nn(C)c2c(=O)[nH]c(-c3cc(S(=O)(=O)N4CCN(C)CC4)ccc3OCC)nc12` [Sildenafil citrate] was run?
Its value is 13.50 ± 2.96.

And the “Genital grooming count Mean ± SE” value [1]?
The value was 15.33 ± 9.20.

And the “Intromission frequency Mean ± SE” value [1]?
Its value is 3.67 ± 2.55.

And the “Mounting count Mean ± SE” value [1]?
The value was 5.50 ± 2.43.

What about the “Sniffing count Mean ± SE” value [1] of the same compound?
The value was 25.83 ± 8.55.

And the “Licking count Mean ± SE” value ([1]; 1 hr before mating, 30 minutes)?
Its value is 14.83 ± 11.32.

What about the “Cyclic GMP levels (plasma)” value [2] of the same compound?
Its value is 18.79 ± 1.65 pmol/mL.

What about the “Cyclic GMP levels (plasma)” value ([2]; listed as sildenafil citrate) of the same compound?
Its value is 18.79 pmol/mL.
